# Assay results published in PubChem BioAssay (NCI).
# “And” between values parts separate entries of the source, which are not always exact repeats. Identical values can stand only once.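 The compound was tested at five concentrations on cells cultured in 96-well plates, with a 48-hour exposure period. GI50 marks 50% less growth. The concentration for full growth arrest is given as TGI.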
# Legend:
# Assay in all cases: growth of human tumour cells (NCI), 48 h
# SK-MEL-2 melanoma = system: SK-MEL-2 melanoma
# SN12C renal = system: SN12C renal
# SF-268 CNS = system: SF-268 CNS
# CCRF-CEM leukemia = system: CCRF-CEM leukemia
# MALME-3M melanoma = system: MALME-3M melanoma
# ACHN renal = system: ACHN renal
# A498 renal = system: A498 renal
# NCI-H522 lung = system: NCI-H522 lung
# HCT-15 colon = system: HCT-15 colon
# MDA-MB-435 = system: MDA-MB-435
SMILES,GI50 (SK-MEL-2 melanoma),TGI (SK-MEL-2 melanoma),GI50 (SN12C renal),TGI (SN12C renal),GI50 (SF-268 CNS),TGI (SF-268 CNS),GI50 (CCRF-CEM leukemia),TGI (CCRF-CEM leukemia),GI50 (MALME-3M melanoma),TGI (MALME-3M melanoma),GI50 (ACHN renal),TGI (ACHN renal),GI50 (A498 renal),TGI (A498 renal),TGI (NCI-H522 lung),TGI (HCT-15 colon),GI50 (HCT-15 colon),GI50 (NCI-H522 lung),GI50 (MDA-MB-435),TGI (MDA-MB-435)
CC(=O)Nc1ccc(/C=C/C(=O)c2sc(-n3nc(-c4ccccc4)cc3-c3ccccc3)nc2C)cc1,> 100 µM,> 100 µM,> 100 µM,> 100 µM,> 100 µM,> 100 µM,> 100 µM,> 100 µM,> 100 µM,> 100 µM,> 100 µM,> 100 µM,> 100 µM,> 100 µM,> 100 µM,–,–,–,–,–
O=C1N(c2ccccc2)C2(O)C(=O)c3ccccc3C2(O)N1c1ccccc1 (stereo not given),–,> 100 µM,–,> 100 µM,–,> 100 µM,–,> 100 µM,–,> 100 µM,–,> 100 µM,–,> 100 µM,> 100 µM,> 100 µM,–,–,–,–
O=C(CNC(=O)c1cccc2ccccc12)Nc1ccccc1Oc1ccc(O)cc1,–,–,2.19 µM,> 25 µM,3.31 µM,> 25 µM,0.94 µM,> 25 µM,–,–,1.86 µM,> 25 µM,1.01 µM,9.97 µM,> 25 µM,> 25 µM,0.909 µM,0.852 µM,0.161 µM,0.687 µM
COc1cc(Br)c(C2OCCCO2)cc1OCc1ccccc1,–,> 100 µM,–,> 100 µM,–,> 100 µM,–,> 100 µM,–,–,–,> 100 µM,–,> 100 µM,> 100 µM,> 100 µM,–,–,–,–
O=c1ccn([C@@H]2C[C@H](CO)CS(=O)C2)c(=O)[nH]1 (stereo not given in full),–,> 100 µM,–,> 100 µM,–,> 100 µM,–,> 100 µM,–,> 100 µM,–,> 100 µM,–,> 100 µM,> 100 µM,> 100 µM,–,–,–,–
CC(=O)NNc1nc(C)c(C(=O)NNC(=O)C(=O)Nc2ccc(C)cc2[N+](=O)[O-])s1,–,> 100 µM,–,> 100 µM,–,> 100 µM,–,> 100 µM,–,> 100 µM,–,> 100 µM,–,> 100 µM,78 µM,> 100 µM,–,–,–,–
O=C(/C=C/c1ccccc1)c1ccccn1,–,43.8 µM,–,27.3 µM and 31.8 µM,18.8 µM and 2.66 µM,49.8 µM and 43.9 µM,–,45.4 µM and 57.6 µM,–,–,–,28.9 µM and 31 µM,–,29.6 µM and 37.6 µM,48.2 µM and 33.2 µM,24.9 µM and 50 µM,–,–,–,44.7 µM and 88.7 µM
CC(C)CC(=O)O[C@H]1C(=O)O[C@@H]2C[C@H]3[C@H](C)C(=O)C(O[C@@H]4O[C@H](CO)[C@@H](O)[C@H](O)[C@H]4O)=C[C@]3(C)[C@H]3[C@@H](O)[C@H](O)[C@]4(C(=O)O)OC[C@]32[C@@H]14,–,–,> 100 µM,> 100 µM,> 100 µM,> 100 µM,24.7 µM,83.6 µM,22.8 µM,56.3 µM,> 100 µM,> 100 µM,> 100 µM,> 100 µM,–,> 100 µM,> 100 µM,–,–,> 100 µM
COC(=O)N1C=Cc2c(c(C)c3c([nH]c4ccccc43)c2C)C1C (stereo not given),–,34 µM,–,–,–,44.6 µM,–,54.4 µM,–,36.3 µM,–,–,–,28.8 µM,–,26.4 µM,–,–,–,–
COc1ccc2c(c1)OCC1c3cc(OC)ccc3OC21 (stereo not given),94.3 µM,> 100 µM,74.3 µM,> 100 µM,50.5 µM,> 100 µM,–,–,> 100 µM,> 100 µM,53.1 µM,> 100 µM,63.1 µM,> 100 µM,–,> 100 µM,44.9 µM,–,50.8 µM,> 100 µM
COc1ccc2c(c1)c(-c1nc(-c3cn(C)c4ncccc34)cs1)cn2CCCCN1CCCCC1,–,–,–,–,–,–,–,–,–,–,1.65 µM,3 µM,1.66 µM,3.11 µM,–,2.8 µM,1.45 µM,–,1.66 µM,3.04 µM
N#CC(NNC(=O)c1ccccc1O)c1ccccc1O (stereo not given),–,> 100 µM,–,> 100 µM,–,> 100 µM,–,> 100 µM,–,96.1 µM,–,> 100 µM,–,–,> 100 µM,> 100 µM,–,–,–,–
O=C(c1ccccc1)N1CCc2c([nH]c3ccccc23)C1,–,71.2 µM,–,> 100 µM,–,–,–,> 100 µM,–,> 100 µM,–,> 100 µM,–,–,64.8 µM,> 100 µM,–,–,–,–
BrC(/C=N/Nc1nnc(-c2ccccc2)c(-c2ccccc2)n1)C(Br)c1ccccc1 (stereo not given),–,73.2 µM,–,> 100 µM,–,> 100 µM,–,94.7 µM,–,> 100 µM,–,> 100 µM,–,> 100 µM,54.1 µM,> 100 µM,–,–,–,–
CSc1cnc2ccccc2c1Sc1cn(C)c2ccccc2c1=O,–,> 100 µM,–,> 100 µM,–,> 100 µM,–,> 100 µM,–,> 100 µM,–,> 100 µM,–,> 100 µM,–,> 100 µM,–,–,–,–
COc1cc(/C=C(\C#N)C(=O)c2ccccc2)cc(OC)c1OC,–,> 100 µM,–,> 100 µM,–,> 100 µM,–,> 100 µM,–,> 100 µM,–,> 100 µM,–,–,> 100 µM,> 100 µM,–,–,–,–
CCOc1ccc(/C=C/C(=O)c2sc(NNC(C)=O)nc2C)cc1,–,> 100 µM,–,> 100 µM,–,> 100 µM,–,> 100 µM,–,> 100 µM,–,> 100 µM,–,> 100 µM,> 100 µM,> 100 µM,–,–,–,–
Cc1[nH]n(C(=O)Cc2ccccc2)c(=O)c1/C=C1\C(=O)C=Cc2ccccc21,–,–,–,> 100 µM,–,> 100 µM,–,93.4 µM,–,40.2 µM,–,> 100 µM,–,–,> 100 µM,> 100 µM,–,–,–,–
CCc1cccc(CC)c1NC1=CC(=O)C(=O)c2ccccc21,–,35.9 µM,–,76.5 µM,–,72.5 µM,–,> 100 µM,–,31.9 µM,–,26 µM,–,39.5 µM,28.3 µM,57.7 µM,–,–,–,–
CC(=O)[O-].O=C([CH-]C(=O)c1ccccc1)c1ccccc1.O=C([CH-]C(=O)c1ccccc1)c1ccccc1.[Dy+3],14.9 µM,37.4 µM,11.9 µM,59.5 µM,10.4 µM,56.4 µM,–,–,21.8 µM,67.9 µM,14.3 µM,> 100 µM,15.5 µM,61.5 µM,36.9 µM,–,–,10.4 µM,–,–
